Data reported in US20220380574A1, “DUAL-FUNCTION MELT ADDITIVES” (3M INNOVATIVE PROPERTIES COMPANY, priority 2019, published 2022).

System: S. aureus ATCC 6538
Experiment: Modified AATCC Method 100, antibacterial activity of nonwoven BMF webs (viable cell count after 24 hrs)
Assay type: cell-based
Conditions: statement in words on the additive in electret webs
Description: Besides the charge-enhancing properties, the charge-enhancing additives also provide anti-microbial properties. Antimicrobials are agents that kill microorganisms or stops their growth. Antimicrobials work at a cellular level to continually disrupt and prevent the growth of microorganisms. By creating an inhospitable environment for microorganisms like bacteria, mold and mildew, antimicrobials protect everyday products like countertops, toys, surface coatings, textiles and hospital equipment. The antimicrobial activity of the current charge-enhancing additives in electret webs can be measured in a variety of different ways. One particularly suitable measurement technique is the standard test method of “Modified AATCC Method 100—Assessment of Antibacterial Finishes on Textile Materials” was used for the nonwoven webs performance test. This method is used to evaluate the antibacterial activity of textile products treated with antibacterial finish, which is suitable for nonwoven hydrophobic fabric webs. Details of the test method are provided in the Examples section, below. The standard test method of “Modified AATCC Method 100—Assessment of Antibacterial Finishes on Textile Materials” was used for the nonwoven webs performance test. […] Viable cell count of S. Aureus ATCC 6538 on BMF web after 24 hrs were measured.

## c1ccc(-c2nc3ccccc3[nH]2)cc1 [CA-4, 2-Phenylbenzimidazole]
  combination of charge-enhancing and anti-microbial properties: do not have this combination of properties
